Measured values as given in article PMC7497641, “Neurotropic activity and safety of methylene-cycloalkylacetate (MCA) derivative 3-(3-allyl-2-methylenecyclohexyl) propanoic acid” (ACS Chemical Neuroscience, 2020).

How the values were obtained:
[1] = target: 5-Hydroxy tryptamine (Serotonin) Receptor 2B (HTR2B) (Homo sapiens, UniProt P41595); assay: SAFETYscan GPCR Calcium Flux; type: cell-based
[2] = target: 5-Hydroxy tryptamine (Serotonin) Receptor 2A (HTR2A) (Homo sapiens, UniProt P28223); assay: SAFETYscan GPCR Calcium Flux; type: cell-based
[3] = target: T1, CK1 (Homo sapiens, UniProt P48730); assay: PhosphoSens CSox based kinase assay; type: biochemical; details: 5 μM HU-MCA-13
T1 construct: CK1δ, amino acids 1 -294, Carna; purchased Carna 03-103
Description: (§1) The initial focus was to measure the modulatory activity in vitro of MCA-13 on protein kinases which were reported to be involved in induction of neurite outgrowth.[18],[43] To do this, we took advantage of a powerful method to measure the activity of recombinant protein kinases using a homogeneous and continuous (kinetic) format, where the level of chelation-enhanced fluorescence (CHEF) is directly proportional to the amount of phosphorylated, real-time sensors consisting of sulfonamido-oxine (Sox) chromophore linked to a peptide or protein substrates of selective kinases.[44] This assay is ideal for elucidating drug mechanism of action and is increasingly being applied earlier in the drug development workflow to address off target effects and/or the challenges and opportunities for next generation protein kinase inhibitors.[45] Since neurotrophins induce neurite outgrowth by activating the different tropomyosin kinase receptors (Trk), and small molecules agonists of Trk receptors can selectively activate Trks,[46] we first investigated the ability of HU-MCA-13 to modulate TRKA, TRKB and TRKC phosphorylation activities (Supporting Information, Figure S3-2). […] The TRKs constructs used in the assay contained only the intracellular kinase domain (amino acids 442–786) and therefore presently we cannot exclude that HU-MCA-13 may interact with the TRKs extracellular domain thereby inducing the conformational change required for the kinase domain activation. […] Moreover, no effects of HU-MCA-13were found on other kinases (ASK1, ERK2, JNK3, p38α, CDK5, KDR-VEGFR, AKT1, GSK3β, PDGFRβ, PKACα, PKC, CK1, IKKβ) which stimulate neurite outgrowth. Also, no effects were observed of HU-MCA-13 on kinases (EGFR, IGF1R, FGFR 1 and 2, CAMK2α,) which inhibit neurite outgrowth or calcineurin phosphatase which dephosphorylates the neurite outgrowth stimulatory protein, cofilin.[47]
(§2) MCA-13 safety b y in vitro eval uati on usi ng Phos pho Sens®C Soxb ased kinase […]
(§3) Method: Kinase Activity Measurements
(§4) Kinase activity was measured continuously using the PhosphoSens®technology (AssayQuant Technologies Inc., Marlborough, MA) according to the manufacturers’ recommendations (http://www.assayquant.com/) . This one-step homogeneous assay use s chelation-enh anced fluorescence via optimized substrate sensors unique for each kinase, containing the unnatural fluorogenic amino-acid Sox.
(§5) The following kinases which, upon stimulation or inhibition with small molecule modulators, induced neurite outgrowth, were obtained from different companies and were used in this study at the following concentrations: 2.
(§6) 25 µL final reaction volume including : 2.5 µl Sox-based substrate (10 x), 17.5 µl reaction mix with AT P, 5.0 µL Kinase [5x in EDB (Enzyme Dilution Buffer : 20 mM TRIS, pH 8.0, 0.01% Brij -35, 0.1 mM EGTA, 5% Glycerol, 1 mM DTT, 1 mg/mL Bovine Serum Albumin]. 5-45 min preincubation (all except EDB/kinase) at 30 °C of substrate in reaction mix and ATP ensuring that the progress kinetic curve for the background fluorescence w as flat. Reaction was run at 30 °C for […]
(§7) Final Reaction Conditions.
(§8) Protein kinase activity was determined in 54 mM HEPES, pH 7.5 1 mM ATP 1.2 mM DTT (none in ASK1) 0.012% Brij-35 1% glycerol 0.2 mg/ml BSA 0.52 mM EGTA (none in assays of CAMK2α, PKCε, PKCι, Calcineurin A/B) 140 µM phosphatidylserine/3.8 µM diacylglycerol (PKCε, PKCι only) 5 ng/µl calmodulin/0.4 mM CaCl2 (CAMK2α, Calcineurin A/B only) 10 mM […]
(§9) IKKβ, AKT1, GSK3β, PKCε, PKCι, PKACα, KDR, CK1δ, EGFR, ASK1, IGF1R, CAMK2α, DLK, FGFR2, FGFR1) in the presence or absence of 5 µ M H U-MCA-13 test compound. All components e xcept enzyme were equilibrated to 30 °C prior to setting up reactions run in Corning, 384-well, white flat round bottom polystyrene NBS microplates (Cat. #3824) after sealing using optically-clear adhesive film [TopSealA -Plus plate seal, PerkinElmer (Cat. #6050185)], applied with a roller to eliminate evaporation and resulting drift. Europium was added to a final […]

[4] = system: PKC; assay: PhosphoSens CSox based kinase assay; type: biochemical; details: 5 μM HU-MCA-13
Description: as §1, §2, §3, §4, §5, §6, §7, §8, §9

[5] = target: T2, ASK1 (Homo sapiens, UniProt Q99683); assay: PhosphoSens CSox based kinase assay; type: biochemical; details: 5 μM HU-MCA-13
T2 construct: ASK1, amino acids 1-1374, Invitrogen; purchased Invitrogen PV3809
Description: as §1, §2, §3, §4, §5, §6, §7, §8, §9

[6] = target: T3, TRKC (Homo sapiens, UniProt Q16288); assay: PhosphoSens CSox based kinase assay; type: biochemical; details: 5 μM HU-MCA-13; no effect on initial rate, small delay in later stage of progress curve
T3 construct: TRKC, amino acids 45 6-825, BPS Bio; purchased BPS Bio 40282 (lot 140205-G2)
Description: as §1, §2, §3, §4, §5, §6, §7, §8, §9

[7] = target: T4, CAMK2α (Homo sapiens, UniProt Q9UQM7); assay: PhosphoSens CSox based kinase assay; type: biochemical; details: 5 μM HU-MCA-13
T4 construct: amino acids 1-478, Carna (cat. & lot #: 02)
Description: as §1, §2, §3, §4, §5, §6, §7, §8, §9

[8] = target: T5, FGFR 1 (Homo sapiens, UniProt P11362); assay: PhosphoSens CSox based kinase assay; type: biochemical; details: 5 μM HU-MCA-13
T5 construct: 396-820, Carna (cat. & lot #: 08); purchased Carna 08-133
Description: as §1, §2, §3, §4, §5, §6, §7, §8, §9

[9] = target: T6, JNK3 (Homo sapiens, UniProt P53779); assay: PhosphoSens CSox based kinase assay; type: biochemical; details: 5 μM HU-MCA-13
T6 construct: JNK 3, amino acids 1 -426, Carna; purchased Carna 04-150
Description: as §1, §2, §3, §4, §5, §6, §7, §8, §9

[10] = target: T7, PKACα (Homo sapiens, UniProt P17612); assay: PhosphoSens CSox based kinase assay; type: biochemical; details: 5 μM HU-MCA-13
T7 construct: PKACα, amino acids 1 -351, Carna (cat. & lot #: 01 -127/10CBS -0315N)/; purchased Carna 01-127
Description: as §1, §2, §3, §4, §5, §6, §7, §8, §9

[11] = target: T8, cAMP-specific 3′,5′-cyclic phospho-diesterase 4D2 (PDE4D2) (Homo sapiens, UniProt Q08499); assay: SAFETYscan Enzymatic assay; type: biochemical; details: Inhibitor
T8 construct: purchased Signal Chem

[12] = target: Nuclear Hormone Androgen Receptor (AR) (Homo sapiens, UniProt P10275); assay: SAFETYscan Nuclear Hormone Receptor assay; type: cell-based
[13] = target: T9, cGMP-inhibited cyclic nucleotide phospho-diesterase 3A (PDE3A) (Homo sapiens, UniProt Q14432); assay: SAFETYscan Enzymatic assay; type: biochemical; details: Inhibitor
T9 construct: purchased Signal Chem

[14] = 10 μM, read-out: MCA-13 Max. Responce
[15] = read-out: RC50 (the source's name)

5-Hydroxy tryptamine (Serotonin) Receptor 2A (HTR2A), sequence (P28223 whole entry): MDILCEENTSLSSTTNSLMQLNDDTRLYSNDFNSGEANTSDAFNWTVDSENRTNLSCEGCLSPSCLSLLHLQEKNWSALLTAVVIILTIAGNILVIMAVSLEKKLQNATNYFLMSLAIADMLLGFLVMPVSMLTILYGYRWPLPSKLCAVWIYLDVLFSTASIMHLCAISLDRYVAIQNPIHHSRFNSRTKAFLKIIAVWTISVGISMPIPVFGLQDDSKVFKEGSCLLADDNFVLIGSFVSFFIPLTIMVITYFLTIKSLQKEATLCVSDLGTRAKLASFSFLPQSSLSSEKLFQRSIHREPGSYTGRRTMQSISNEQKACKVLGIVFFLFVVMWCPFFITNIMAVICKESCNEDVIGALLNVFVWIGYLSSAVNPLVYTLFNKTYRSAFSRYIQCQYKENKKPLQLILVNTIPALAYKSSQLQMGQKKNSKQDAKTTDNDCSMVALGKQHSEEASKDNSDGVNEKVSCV
T8 sequence (Q08499 303-809): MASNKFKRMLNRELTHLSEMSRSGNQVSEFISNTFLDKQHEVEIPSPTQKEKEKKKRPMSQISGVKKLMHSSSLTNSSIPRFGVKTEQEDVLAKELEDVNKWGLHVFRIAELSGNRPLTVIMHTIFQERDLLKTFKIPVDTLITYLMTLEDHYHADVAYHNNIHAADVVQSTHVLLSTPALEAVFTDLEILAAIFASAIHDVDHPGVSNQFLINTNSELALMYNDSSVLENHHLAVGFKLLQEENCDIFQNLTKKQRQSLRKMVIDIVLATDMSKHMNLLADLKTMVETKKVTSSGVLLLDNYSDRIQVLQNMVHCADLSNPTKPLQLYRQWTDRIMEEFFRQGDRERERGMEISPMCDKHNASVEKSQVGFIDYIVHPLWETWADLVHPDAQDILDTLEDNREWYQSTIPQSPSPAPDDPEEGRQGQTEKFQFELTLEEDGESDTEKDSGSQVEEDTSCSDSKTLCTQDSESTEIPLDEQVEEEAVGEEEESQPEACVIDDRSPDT
5-Hydroxy tryptamine (Serotonin) Receptor 2B (HTR2B), sequence (P41595 whole entry): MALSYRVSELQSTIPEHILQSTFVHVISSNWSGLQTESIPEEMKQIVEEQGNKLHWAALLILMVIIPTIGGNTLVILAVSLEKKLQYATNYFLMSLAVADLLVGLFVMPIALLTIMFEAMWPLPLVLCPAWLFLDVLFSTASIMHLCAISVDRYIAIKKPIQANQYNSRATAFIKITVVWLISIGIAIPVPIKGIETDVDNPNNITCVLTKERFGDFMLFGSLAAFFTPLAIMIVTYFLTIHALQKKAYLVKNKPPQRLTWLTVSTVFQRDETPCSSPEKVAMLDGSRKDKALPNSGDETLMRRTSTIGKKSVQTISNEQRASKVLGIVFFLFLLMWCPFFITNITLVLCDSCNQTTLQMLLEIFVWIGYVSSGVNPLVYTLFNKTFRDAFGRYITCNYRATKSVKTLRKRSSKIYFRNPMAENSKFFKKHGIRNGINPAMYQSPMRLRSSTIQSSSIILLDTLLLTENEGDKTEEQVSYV
T9 sequence (Q14432 whole entry): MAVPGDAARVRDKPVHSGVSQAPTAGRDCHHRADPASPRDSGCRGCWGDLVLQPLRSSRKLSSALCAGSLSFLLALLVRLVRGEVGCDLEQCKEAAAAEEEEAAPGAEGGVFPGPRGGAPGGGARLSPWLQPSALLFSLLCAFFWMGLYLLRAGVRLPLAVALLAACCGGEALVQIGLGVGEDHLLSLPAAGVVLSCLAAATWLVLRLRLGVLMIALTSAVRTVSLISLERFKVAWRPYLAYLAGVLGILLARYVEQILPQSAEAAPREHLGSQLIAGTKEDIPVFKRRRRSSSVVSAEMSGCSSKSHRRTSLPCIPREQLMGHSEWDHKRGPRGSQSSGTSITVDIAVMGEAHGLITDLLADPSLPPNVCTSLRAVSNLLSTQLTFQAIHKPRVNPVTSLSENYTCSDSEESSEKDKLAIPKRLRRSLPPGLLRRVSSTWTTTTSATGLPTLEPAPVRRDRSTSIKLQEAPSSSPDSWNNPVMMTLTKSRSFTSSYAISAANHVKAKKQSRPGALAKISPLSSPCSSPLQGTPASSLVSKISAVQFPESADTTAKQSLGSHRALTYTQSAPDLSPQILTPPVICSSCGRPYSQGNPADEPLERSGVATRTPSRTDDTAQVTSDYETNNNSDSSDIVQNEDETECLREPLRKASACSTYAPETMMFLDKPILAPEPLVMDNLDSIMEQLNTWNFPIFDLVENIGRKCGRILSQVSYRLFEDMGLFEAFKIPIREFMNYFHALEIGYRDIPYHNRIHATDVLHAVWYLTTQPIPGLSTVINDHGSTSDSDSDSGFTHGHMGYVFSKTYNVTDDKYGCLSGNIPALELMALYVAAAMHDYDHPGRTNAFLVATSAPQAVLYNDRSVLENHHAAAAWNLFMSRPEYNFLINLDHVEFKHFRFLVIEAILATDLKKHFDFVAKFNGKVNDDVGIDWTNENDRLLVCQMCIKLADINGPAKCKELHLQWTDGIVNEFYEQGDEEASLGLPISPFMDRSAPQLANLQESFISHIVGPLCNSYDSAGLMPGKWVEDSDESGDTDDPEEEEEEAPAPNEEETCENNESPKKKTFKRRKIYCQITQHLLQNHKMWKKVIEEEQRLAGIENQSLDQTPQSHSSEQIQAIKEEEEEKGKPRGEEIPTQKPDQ
Nuclear Hormone Androgen Receptor (AR), sequence (P10275 whole entry): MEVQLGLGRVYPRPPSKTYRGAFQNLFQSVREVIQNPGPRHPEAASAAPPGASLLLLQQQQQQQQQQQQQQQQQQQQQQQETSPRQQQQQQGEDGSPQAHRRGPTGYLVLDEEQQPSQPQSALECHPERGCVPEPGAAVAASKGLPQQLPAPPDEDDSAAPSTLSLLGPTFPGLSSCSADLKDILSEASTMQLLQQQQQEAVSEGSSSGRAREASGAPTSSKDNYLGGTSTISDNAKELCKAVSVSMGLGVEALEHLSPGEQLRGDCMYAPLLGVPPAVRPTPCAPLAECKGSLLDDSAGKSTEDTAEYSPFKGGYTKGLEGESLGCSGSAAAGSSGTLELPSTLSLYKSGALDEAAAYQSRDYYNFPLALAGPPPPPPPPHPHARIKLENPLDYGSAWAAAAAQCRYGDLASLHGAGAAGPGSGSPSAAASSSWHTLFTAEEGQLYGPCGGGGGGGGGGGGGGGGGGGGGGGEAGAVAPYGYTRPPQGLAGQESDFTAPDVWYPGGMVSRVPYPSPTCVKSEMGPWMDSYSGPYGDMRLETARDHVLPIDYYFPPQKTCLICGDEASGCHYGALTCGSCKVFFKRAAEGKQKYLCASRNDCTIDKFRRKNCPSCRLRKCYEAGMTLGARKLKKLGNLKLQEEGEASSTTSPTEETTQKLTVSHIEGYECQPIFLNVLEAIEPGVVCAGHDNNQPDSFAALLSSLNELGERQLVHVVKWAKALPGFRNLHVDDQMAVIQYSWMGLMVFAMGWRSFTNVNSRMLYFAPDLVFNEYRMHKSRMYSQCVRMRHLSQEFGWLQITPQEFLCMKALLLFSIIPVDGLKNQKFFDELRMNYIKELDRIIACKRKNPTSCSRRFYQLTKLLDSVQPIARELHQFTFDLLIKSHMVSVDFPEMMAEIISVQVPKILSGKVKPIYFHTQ
T3 sequence (Q16288 456-825 isoform Q16288-3 limits assumed): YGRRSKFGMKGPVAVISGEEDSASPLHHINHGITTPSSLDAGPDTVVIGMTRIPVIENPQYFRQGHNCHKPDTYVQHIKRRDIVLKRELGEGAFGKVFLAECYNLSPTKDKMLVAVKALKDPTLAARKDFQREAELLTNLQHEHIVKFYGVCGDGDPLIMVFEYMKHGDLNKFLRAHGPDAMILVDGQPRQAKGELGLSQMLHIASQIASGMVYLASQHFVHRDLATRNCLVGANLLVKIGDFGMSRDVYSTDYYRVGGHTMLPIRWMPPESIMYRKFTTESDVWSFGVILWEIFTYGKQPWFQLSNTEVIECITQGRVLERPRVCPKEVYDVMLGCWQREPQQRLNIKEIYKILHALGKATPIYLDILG
T6 sequence (P53779 39-464): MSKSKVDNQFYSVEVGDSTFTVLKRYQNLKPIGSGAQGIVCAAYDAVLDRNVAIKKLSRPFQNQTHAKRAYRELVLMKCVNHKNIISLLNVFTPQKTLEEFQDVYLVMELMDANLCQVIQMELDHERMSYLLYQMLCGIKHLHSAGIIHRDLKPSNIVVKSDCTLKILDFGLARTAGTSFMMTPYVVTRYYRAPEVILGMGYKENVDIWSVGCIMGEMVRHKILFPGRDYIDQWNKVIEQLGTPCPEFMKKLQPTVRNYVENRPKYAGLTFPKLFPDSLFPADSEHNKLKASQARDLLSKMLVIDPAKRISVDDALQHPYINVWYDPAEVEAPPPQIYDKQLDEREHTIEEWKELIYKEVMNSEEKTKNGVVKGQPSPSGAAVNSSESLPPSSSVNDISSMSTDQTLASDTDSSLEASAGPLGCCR
T1 sequence (P48730 1-294): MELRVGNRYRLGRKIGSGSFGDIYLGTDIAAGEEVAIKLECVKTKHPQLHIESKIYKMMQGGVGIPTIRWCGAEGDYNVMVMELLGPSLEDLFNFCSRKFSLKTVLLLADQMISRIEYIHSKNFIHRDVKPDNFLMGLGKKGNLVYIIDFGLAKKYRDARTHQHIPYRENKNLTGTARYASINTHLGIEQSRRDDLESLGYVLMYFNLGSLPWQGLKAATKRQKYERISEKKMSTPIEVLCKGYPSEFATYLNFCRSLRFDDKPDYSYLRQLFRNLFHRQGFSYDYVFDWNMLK

C=CCC1CCCC(CCC(=O)O)C1=C (stereo not drawn) [HU-MCA-13, 3-(3-allyl-2-methylenecyclohexyl)propanoic acid]
EC50 [1]: > 10 µM | IC50 [1]: > 10 µM | EC50 [2]: > 10 µM | IC50 [2]: > 10 µM | effect on kinase activity [3]: no effects | effect on kinase activity [4]: no effects | effect on kinase activity [5]: no effects | modulation of phosphorylation activity [6]: slight inhibitory effect | effect on kinase activity [7]: no effects | effect on kinase activity [8]: no effects | effect on kinase activity [9]: no effects | effect on kinase activity [10]: no effects | inhibition at 10 µM [11, 14]: 0% | IC50 [11, 15]: > 10 µM | EC50 [12]: > 10 µM | IC50 [12]: > 10 µM | inhibition at 10 µM [13, 14]: 3.21% | IC50 [13, 15]: > 10 µM
